Experimental data taken from a melting point compilation (Tetko et al.).

melting point [°C] | SMILES
93.4 | CCCCCCCCOc1ncc(-c2ccc(C(OC(c3ccc(-c4cnc(OCCCCCCCC)nc4)cc3)C3COC4(CCCCC4)O3)C3COC4(CCCCC4)O3)cc2)cn1 (stereo not given)
47 to 50 | [C-]#[N+]C(C)C(=O)N(c1ccccc1)C(C)C (stereo not given)
220 to 223 | COc1cc(OC)c(/C=C/C(c2ccc(OC)c(NC(C)=O)c2)S(=O)(=O)C(/C=C/c2c(OC)cc(OC)cc2OC)c2ccc(OC)c(NC(C)=O)c2)c(OC)c1 (stereo not given)
198 to 201 | Cc1ccc(S(=O)(=O)N2CCOCCN(S(=O)(=O)c3ccc(C)cc3)CCN(S(=O)(=O)c3ccc(C)cc3)CCN(S(=O)(=O)c3ccc(C)cc3)CC2)cc1
121 to 122 | O=C(OCCCCCCOc1ccc(-c2ccccc2)cc1)c1cc([N+](=O)[O-])ccc1-c1ccc([N+](=O)[O-])cc1C(=O)OCCCCCCOc1ccc(-c2ccccc2)cc1
240 to 242 | O=C(Oc1cccc2c(OC(=O)c3ccc(OCc4ccccc4)cc3)c3c(OC(=O)c4ccc(OCc5ccccc5)cc4)cccc3cc12)c1ccc(OCc2ccccc2)cc1
178 to 179 | CCc1nc(OC)c(NC(=O)N2CCN(c3cc(C)cc(C)c3)CC2)cc1C(=O)NC(C)C(=O)Nc1cc(CO)cc(Nc2c3ccccc3nc3c(OC)cccc23)c1 (stereo not given)
190 | O=S(=NCCN1CCOCC1)(c1cccs1)c1cccs1
89 to 90 | CCCCCCCCCCCCCCCc1cccc(Oc2ccccc2SSc2ccccc2Oc2cccc(CCCCCCCCCCCCCCC)c2)c1
270 | NS(=O)(=O)c1cccc(-c2noc(-c3cnn4ccc(-c5ccc(C(F)(F)F)cc5)nc34)n2)c1
154 to 157 | FC(F)(F)C1(CNC2=NCCN2)CCCCC1
134 to 136 | CS(=N)(=O)Cc1ccc(Cl)nc1 (stereo not given)
114 to 115 | CC(=O)Nc1cc(COC2OC(COC(=O)c3ccc(Cl)cc3)C(OC3OC4COC(c5ccccc5)OC4C(OC(C)=O)C3OC(C)=O)C(OC(C)=O)C2OC(C)=O)ccc1Cl (stereo not given)
> 250 | O=C(Nc1ccc(Cl)cc1)c1ccc(-c2nn[nH]n2)c(NC(=O)c2sc3ccccc3c2Cl)c1
123 to 124 | CCCCCCCCCCCCCC(=O)Nc1ccc(Cl)c(NC2=NN(c3c(Cl)cc(Cl)cc3Cl)C(=O)C2SCCCCOc2cccc(C)c2)c1 (stereo not given)
68.3 | C=C(C)C(=O)OCCCCCCCCCCCOc1ccc(-c2nc(-c3ccccc3)nc(-c3ccc(OCCCCCCCCCCCOC(=O)C(=C)C)cc3O)n2)c(O)c1
55 to 85 | CC(C)(C)c1cc(CCC(=O)OCC(COC(=O)CCc2cc(C(C)(C)C)c(O)c(C(C)(C)C)c2)(COC(=O)CCc2cc(C(C)(C)C)c(O)c(C(C)(C)C)c2)COC(=O)CCc2cc(C(C)(C)C)c(O)c(C(C)(C)C)c2)cc(C(C)(C)C)c1O
197 to 198 | COc1c(Oc2nc3ccccc3o2)c(C)c(C)n(Cc2ccccc2)c1=O
54 to 56 | CCCCCCCCCCCCCCCCCCN(CCCCCCCCCCCCCCCCCC)CCCN(CCOC(=O)Nc1ccccc1)CCOC(=O)Nc1ccccc1

melting point [°C] | SMILES
217 | Cc1ccn2c(-c3ccnc(-c4ccc(OCc5cn(C)cn5)cc4)c3)c(-c3cccc(C)n3)nc2c1
184 to 185 | CCCCC(Cc1cc(C(C)(C)C)c(O)c(C(C)(C)C)c1)(C(=O)OC1CC(C)(C)N(OC2CCCCC2)C(C)(C)C1)C(=O)OC1CC(C)(C)N(OC2CCCCC2)C(C)(C)C1
193 to 194 | CN(C(=O)Cc1c(-c2ccccc2)c2ccccc2c(=O)n1C)c1cc(C(F)(F)F)cc(C(F)(F)F)c1
65 | CCCCCCCCCCCCCCCC(=O)OC(CCCCCCCCCCCCCC)C(=O)N[C@H](C(=O)N[C@@H](CCC(=O)OCc1ccccc1)C(=O)OCc1ccccc1)C(C)C (stereo not given in full)
392 | O=S1(=O)c2ccccc2N(c2ccccc2)c2ccc(C=Cc3ccc(-c4ccc(C=Cc5ccc6c(c5)S(=O)(=O)c5ccccc5N6c5ccccc5)cc4)cc3)cc21
71 to 73 | O=C(Oc1c(I)cc(I)cc1I)C(F)(F)C(F)(F)C(F)(F)C(F)(F)C(F)(F)C(F)(F)F
43.5 to 44 | CC(C)C(OC(C(I)=C(I)I)C(C)C)C(I)=C(I)I (stereo not given)
179 to 180 | COc1cc(OC)c(/C=C/C(c2ccc(OC)c(NC(=O)C(C)OC(C)=O)c2)S(=O)(=O)C(/C=C/c2c(OC)cc(OC)cc2OC)c2ccc(OC)c(NC(=O)C(C)OC(C)=O)c2)c(OC)c1 (stereo not given)
66 to 68 | CCCCCCCCCCCCCCCCCCCCCCCC[C@@H](C(=O)O)[C@H](O)CCCCCCCCCCCCCCC[C@@H]1C[C@@H]1CCCCCCCCCCCCCCCCCCC(=O)[C@@H](C)CCCCCCCCCCCCCCCCCC
191 to 193 | CC(C)[C@@H](NC(=O)[C@@H](CSC(c1ccccc1)(c1ccccc1)c1ccccc1)NC(=O)[C@@H](C)NC(=O)C[C@H](O)/C=C/CCSC(c1ccccc1)(c1ccccc1)c1ccccc1)C(=O)NCC(=O)O
156 to 158 | COc1cc(OC)c(/C=C/C(c2ccc(OC)c(NCCC(=O)O)c2)S(=O)(=O)C(/C=C/c2c(OC)cc(OC)cc2OC)c2ccc(OC)c(NCCC(=O)O)c2)c(OC)c1 (stereo not given)
177 to 178 | COc1ccc2c(c1)c(CC(=O)NCC(C)(C)SN=O)c(C)n2C(=O)c1ccc(Cl)cc1
163 to 165 | COc1cc(OC)c(C=CC(c2ccc(OC)c(NC(=O)CCl)c2)S(=O)(=O)C(C=Cc2c(OC)cc(OC)cc2OC)c2ccc(OC)c(NC(=O)CCl)c2)c(OC)c1 (stereo not given)
57 | CN(C)CCCN1c2ccccc2Sc2ccc(Cl)cc21
184 to 186 | CCc1nc(OC)c(NC(=O)N2CCN(c3cc(Cl)cc(Cl)c3)CC2)cc1C(=O)NC(C)C(=O)Nc1cc(CO)cc(Nc2c3ccccc3nc3ccccc23)c1 (stereo not given)
320 to 325 | Brc1c(Br)c(Br)c(Oc2nc(Oc3c(Br)c(Br)c(Br)c(Br)c3Br)nc(Oc3c(Br)c(Br)c(Br)c(Br)c3Br)n2)c(Br)c1Br
115 to 118 | CCc1nc2c(cnn2CC)c(NC2CCOCC2)c1CNC(=O)c1cccc(C(=O)NCc2ccc(C)c(-c3cccc(CN4CCN(C(=O)OC(C)(C)C)C(C)C4)c3)c2)c1 (stereo not given)
150 to 152 | COc1cccc2c1CC[C@@H](C(=O)O)C2
246 to 248 | O=C(Nc1cc(Cl)cc(Cl)c1)c1c(O)ccc2ccccc12

melting point [°C] | SMILES
171 to 174 | CSc1ccccc1C(=O)Nc1ccc(C(=O)N2Cc3cccn3Cc3ccccc32)cc1
140 to 145 | CC(C)Cn1c(C(O)c2ccc(Cl)cc2)nc2c(N)nc3ccccc3c21 (stereo not given)
160 to 163 | CN=S(=O)(Cc1ccc(Cl)nc1)c1nc(-c2ccc(OC)cc2)cs1 (stereo not given)
154 to 155 | CCOc1cc2c(cc1O)CCC1C2CCC2(C)C(O)CCC12 (stereo not given)
113 to 115 | C=CCN(CC=C)c1nc(OC)nc(N(CCCCCCN(c2nc(OC)nc(N(CC=C)CC=C)n2)C2CC(C)(C)NC(C)(C)C2)C2CC(C)(C)NC(C)(C)C2)n1
179 to 180 | CCCCCCCCCCCS(=O)(=O)c1cc2c3cc(S(=O)(=O)CCCCCCCCCCC)c(S(=O)(=O)CCCCCCCCCCC)cc3c3cc(S(=O)(=O)CCCCCCCCCCC)c(S(=O)(=O)CCCCCCCCCCC)cc3c2cc1S(=O)(=O)CCCCCCCCCCC
176 | O=C(O)Cc1cc(I)c(Oc2cc(I)c(OCC3CO3)c(I)c2)c(I)c1 (stereo not given)
50 to 52 | CC(CCCCCCCCCCCCc1scc(Br)c1Br)C(=O)C(C)CCCCCCCCCCCCc1scc(Br)c1Br (stereo not given)
96 to 97 | CC(C)C(NC(=O)N(C)Cc1ccccn1)C(=O)NC(Cc1ccccc1)C(O)C(O)C(Cc1ccccc1)NC(=O)C(NC(=O)N(C)Cc1nccs1)C(C)C (stereo not given)
219 to 221 | CC(c1cc(C(C)(C)C)cc(C(C)(C)C)c1O)c1cc(C(C)(C)C)cc(C(C)(C)C)c1OP1Oc2c(cc(C(C)(C)C)cc2C(C)(C)C)C(C)c2cc(C(C)(C)C)cc(C(C)(C)C)c2O1 (stereo not given)
42.1 to 43.1 | FC(F)(F)C(F)(F)C(F)(F)C(F)(F)C(F)(F)C(F)(F)CCc1ccc(P(c2ccccc2)c2ccc(CCC(F)(F)C(F)(F)C(F)(F)C(F)(F)C(F)(F)C(F)(F)F)cc2)cc1
185 to 186 | O=C(O)C1=Cc2cc(Br)ccc2NC1C(F)(F)F (stereo not given)
135 to 140 | O=C(OCC(OC(=O)C1CCCCC1)C(OC(=O)C1CCCCC1)C(OC(=O)C1CCCCC1)C(COC(=O)C1CCCCC1)OC(=O)C1CCCCC1)C1CCCCC1 (stereo not given)
257 to 262 | CCC1(CC)c2cc(-c3ccc(N(c4ccccc4)c4ccc(-c5ccc6c(c5)C(CC)(CC)c5cc(-c7nc8ccccc8s7)ccc5-6)cc4)cc3)ccc2-c2ccc(-c3nc4ccccc4s3)cc21
87 to 88 | FC(F)(F)C(F)(F)C(F)(F)C(F)(F)C(F)(F)C(F)(F)C(F)(F)C(F)(F)CCC1(CCC(F)(F)C(F)(F)C(F)(F)C(F)(F)C(F)(F)C(F)(F)C(F)(F)C(F)(F)F)c2ccccc2-c2ccccc21
195 to 200 | NC(=O)c1c(I)c(C(=O)N(CC(O)CO)CC(O)CO)c(I)c(N(CC(O)CO)C(=O)CO)c1I (stereo not given)
198 to 199 | COc1cc(OC)c(/C=C/C(c2ccc(OC)c(NC(=O)C(C)(C)O)c2)S(=O)(=O)C(/C=C/c2c(OC)cc(OC)cc2OC)c2ccc(OC)c(NC(=O)C(C)(C)O)c2)c(OC)c1 (stereo not given)
262 to 264 | CCC1(CC)c2cc(-c3nc4ccccc4s3)ccc2-c2ccc(N(c3ccc4c(c3)C(CC)(CC)c3cc(-c5nc6ccccc6s5)ccc3-4)C3CCCCC3)cc21

SMILES | melting point [°C]
CC=C(C)C(=O)NC(c1ccccc1)C(O)C(=O)OC1CC2(O)C(OC(=O)c3ccccc3)C3C4(OC(C)=O)COC4CC(O)C3(C)C(=O)C(OC(C)=O)C(=C1C)C2(C)C (stereo not given) | 184 to 186
C=CC(=O)NCNC(=O)C=C | 185
NC(=NC(=O)OCc1ccc([N+](=O)[O-])cc1)N(CCSSCCN(C(=O)OCc1ccc([N+](=O)[O-])cc1)C(N)=NC(=O)OCc1ccc([N+](=O)[O-])cc1)C(=O)OCc1ccc([N+](=O)[O-])cc1 | 165
Cc1c(C2=CC(c3c(C)n(Cc4ccc(Cl)cc4)c4ccc([N+](=O)[O-])cc34)(c3c(C)n(Cc4ccc(Cl)cc4)c4ccc([N+](=O)[O-])cc34)OC2=O)c2cc([N+](=O)[O-])ccc2n1Cc1ccc(Cl)cc1 | 227 to 228
